How the values were obtained:
U-251 MG GBM cells = assay: Morphology of U-251 MG GBM cells after treatment; type: cell-based; details: over-expressor of IL-13Rα2, 1 to 20 μM or equimolar concentrations
Source text: (§1) We have designed double-specificity therapeutic delivery systems, which not only specifically recognize cancer cells, but also enable intracellular distribution of anti-cancer agents to their respective sites of action, like the cytosol, mitochondria and/or nucleus. Some cationic peptides lyse negatively charged mitochondrial membranes of a eukaryotic cell, leading to initiation of caspase-3 dependent cell death. We have chosen one such peptide, (KLAKLAK)2 [SEQ ID NO:1, KK] to target the mitochondria of glioblastoma multiforme (GBM) brain tumor cells. To target GBM cells, we exploited interleukin 13 receptor alpha 2 (IL-13Rα2), an IL-13 plasma membrane receptor which is over-expressed in 75% of GBM patients. To enable intracytosolic delivery of the KK peptide mediated first by the IL-13Rα2, we use Pseudomonas exotoxin A (PE) domain II [D2] based delivery vector. D2 of PE is responsible for the processing and translocation of the internalized toxin and any other protein/agent fused to its C-terminal end from the endosome to the cytosol. Thus, we have generated single chain fusion proteins composed of IL-13, D2 and KK: IL-13.D2 and IL-13.D2.KK, respectively. These proteins were expressed in BL21 (λDE3) E. coli under the bacteriophage T7 promoter control and were further processed and purified by the FPLC system to >95% purity. […]

U-87 MG GBM cells = assay: Morphology of U-87 MG GBM cells after treatment; type: cell-based; details: over-expressor of IL-13Rα2, 1 to 20 μM or equimolar concentrations
Source text: as §1

With “(KLAKLAK)2 (KLAKLAKKLAKLAK; Amphipathic antimicrobial peptide sequence) [KK peptide]” the “effect on cell morphology” value (U-251 MG GBM cells) was “did not have any measurable effect” and the “effect on cell morphology” value (U-87 MG GBM cells) was “did not have any measurable effect”.

Reference: US9296785B2, “IL-13 receptor binding peptides” (Wake Forest University Health Sciences, priority 2009, dated 2016)
